Measured values as given in US20230085307A1, “PYRIDAZINONE COMPOUND AND HERBICIDE” (NISSAN CHEMICAL CORPORATION, priority 2019, published 2023).

Legend:
[1] = system: velvetleaf; assay: Test Example 4: herbicidal effect by soil treatment (Table 19, symbol M); type: in vivo, velvetleaf (Abutilon theophrasti); conditions: amount of applied herbicide 320 g/ha
How it was run: (§1)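 Three weeks of greenhouse growth at 25° C. to 30° C. followed a uniform surface spray of water-diluted emulsion at a predetermined herbicide amount. Seeds had been sown beforehand under about 1.5 cm of sterilized diluvial soil. Grading followed criteria set out in an earlier test.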

[2] = system: barnyard grass; assay: Test Example 4: herbicidal effect by soil treatment (Table 19, symbol H); type: in vivo, barnyard grass (Echinochloa crus-galli); conditions: amount of applied herbicide 320 g/ha
How it was run: as §1

[3] = system: redroot pigweed; assay: Test Example 4: herbicidal effect by soil treatment (Table 19, symbol N); type: in vivo, redroot pigweed (Amaranthus retroflexus); conditions: amount of applied herbicide 320 g/ha
How it was run: as §1

[4] = system: persian speedwell; assay: Test Example 4: herbicidal effect by soil treatment (Table 19, symbol R); type: in vivo, Persian speedwell (Veronica persica); conditions: amount of applied herbicide 320 g/ha
How it was run: as §1

[5] = system: windgrass; assay: Test Example 5: herbicidal effect by foliage application, plastic box (Table 20, symbol L); type: in vivo, windgrass (Apera spica-venti); conditions: foliage application, 320 g/ha, three weeks after application
How it was run: (§2)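 Plants sown in sterilized diluvial soil and grown 14 days in a greenhouse at 25° C to 30° C, then sprayed on the foliage with the compound's emulsion diluted in water to a predetermined herbicide amount. Injury to weeds and crops scored three weeks after application on a visual rating scale.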

[6] = system: southern crabgrass; assay: Test Example 5: herbicidal effect by foliage application, plastic box (Table 20, symbol F); type: in vivo, southern crabgrass (Digitaria ciliaris); conditions: foliage application, 320 g/ha, three weeks after application
How it was run: as §2

[7] = system: chickweed; assay: Test Example 4: herbicidal effect by soil treatment (Table 19, symbol P); type: in vivo, common chickweed (Stellaria media); conditions: amount of applied herbicide 320 g/ha
How it was run: as §1

[8] = system: blackgrass; assay: Test Example 5: herbicidal effect by foliage application, plastic box (Table 20, symbol J); type: in vivo, blackgrass (Alopecurus myosuroides); conditions: foliage application, 320 g/ha, three weeks after application
How it was run: as §2

[9] = system: Italian ryegrass; assay: Test Example 5: herbicidal effect by foliage application, plastic box (Table 20, symbol K); type: in vivo, Italian ryegrass (Lolium multiflorum); conditions: foliage application, 320 g/ha, three weeks after application
How it was run: as §2

[10] = system: redroot pigweed; assay: Test Example 5: herbicidal effect by foliage application, plastic box (Table 20, symbol N); type: in vivo, redroot pigweed (Amaranthus retroflexus); conditions: foliage application, 320 g/ha, three weeks after application
How it was run: as §2

[11] = system: barnyard grass; assay: Test Example 5: herbicidal effect by foliage application, plastic box (Table 20, symbol H); type: in vivo, barnyard grass (Echinochloa crus-galli); conditions: foliage application, 320 g/ha, three weeks after application
How it was run: as §2

[12] = system: lambsquarters; assay: Test Example 5: herbicidal effect by foliage application, plastic box (Table 20, symbol O); type: in vivo, lambsquarters (Chenopodium album); conditions: foliage application, 320 g/ha, three weeks after application
How it was run: as §2

[13] = system: chickweed; assay: Test Example 5: herbicidal effect by foliage application, plastic box (Table 20, symbol P); type: in vivo, common chickweed (Stellaria media); conditions: foliage application, 320 g/ha, three weeks after application
How it was run: as §2

[14] = system: windgrass; assay: Test Example 4: herbicidal effect by soil treatment (Table 19, symbol L); type: in vivo, windgrass (Apera spica-venti); conditions: amount of applied herbicide 320 g/ha
How it was run: as §1

[15] = system: green foxtail; assay: Test Example 4: herbicidal effect by soil treatment (Table 19, symbol G); type: in vivo, green foxtail (Setaria viridis); conditions: amount of applied herbicide 320 g/ha
How it was run: as §1

[16] = system: Italian ryegrass; assay: Test Example 4: herbicidal effect by soil treatment (Table 19, symbol K); type: in vivo, Italian ryegrass (Lolium multiflorum); conditions: amount of applied herbicide 320 g/ha
How it was run: as §1

[17] = system: wild oat; assay: Test Example 4: herbicidal effect by soil treatment (Table 19, symbol I); type: in vivo, wild oat (Avena fatua); conditions: amount of applied herbicide 320 g/ha
How it was run: as §1

[18] = system: green foxtail; assay: Test Example 5: herbicidal effect by foliage application, plastic box (Table 20, symbol G); type: in vivo, green foxtail (Setaria viridis); conditions: foliage application, 320 g/ha, three weeks after application
How it was run: as §2

[19] = system: oval-leafed pondweed; assay: Test Example 1: herbicidal activity, application before weed generation under submerged conditions (Table 16, symbol C); type: in vivo, oval-leafed pondweed (Monochoria vaginalis); conditions: amount of applied herbicide 320 g/ha
How it was run: (§3)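 Alluvial soil was flooded to 4 cm depth, weed seeds were sown mixed and 2.5-leaf rice seedlings were transplanted. On sowing day, the compound's emulsion, diluted in water to a set dose, was applied to the water surface. Plants grew at 25–30 °C and were scored 0–5 after three weeks.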

[20] = system: Chinese sprangletop; assay: Test Example 3: herbicidal effect by foliage application, Wagner pot (Table 18, symbol D); type: in vivo, chinese sprangletop (Leptochloa chinensis); conditions: 320 g/ha
How it was run: (§4)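 Plants were sown in alluvial soil held under 0.1–0.5 cm standing water and grown 14 days in a greenhouse at 25–30 °C. An emulsifiable formulation, water-diluted to the set dose, was then sprayed onto the foliage, and effects were scored three weeks later using previously defined criteria.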

[21] = system: persian speedwell; assay: Test Example 5: herbicidal effect by foliage application, plastic box (Table 20, symbol R); type: in vivo, Persian speedwell (Veronica persica); conditions: foliage application, 320 g/ha, three weeks after application
How it was run: as §2

[22] = system: blackgrass; assay: Test Example 4: herbicidal effect by soil treatment (Table 19, symbol J); type: in vivo, blackgrass (Alopecurus myosuroides); conditions: amount of applied herbicide 320 g/ha
How it was run: as §1

[23] = system: false cleavers; assay: Test Example 5: herbicidal effect by foliage application, plastic box (Table 20, symbol Q); type: in vivo, false cleavers (Galium spurium); conditions: foliage application, 320 g/ha, three weeks after application
How it was run: as §2

[24] = system: wild oat; assay: Test Example 5: herbicidal effect by foliage application, plastic box (Table 20, symbol I); type: in vivo, wild oat (Avena fatua); conditions: foliage application, 320 g/ha, three weeks after application
How it was run: as §2

[25] = system: false cleavers; assay: Test Example 4: herbicidal effect by soil treatment (Table 19, symbol Q); type: in vivo, false cleavers (Galium spurium); conditions: amount of applied herbicide 320 g/ha
How it was run: as §1

[26] = system: rice flat sedge; assay: Test Example 3: herbicidal effect by foliage application, Wagner pot (Table 18, symbol E); type: in vivo, rice flat sedge (Cyperus iria); conditions: 320 g/ha
How it was run: as §4

[27] = system: velvetleaf; assay: Test Example 5: herbicidal effect by foliage application, plastic box (Table 20, symbol M); type: in vivo, velvetleaf (Abutilon theophrasti); conditions: foliage application, 320 g/ha, three weeks after application
How it was run: as §2

[28] = system: Japanese bulrush; assay: Test Example 1: herbicidal activity, application before weed generation under submerged conditions (Table 16, symbol B); type: in vivo, Japanese bulrush (Schoenoplectus juncoides); conditions: amount of applied herbicide 320 g/ha
How it was run: as §3

[29] = system: late watergrass; assay: Test Example 1: herbicidal activity, application before weed generation under submerged conditions (Table 16, symbol A); type: in vivo, late watergrass (Echinochloa oryzicola); conditions: amount of applied herbicide 320 g/ha
How it was run: as §3

[30] = system: southern crabgrass; assay: Test Example 4: herbicidal effect by soil treatment (Table 19, symbol F); type: in vivo, southern crabgrass (Digitaria ciliaris); conditions: amount of applied herbicide 320 g/ha
How it was run: as §1

[31] = system: barnyard grass; assay: Test Example 3: herbicidal effect by foliage application, Wagner pot (Table 18, symbol H); type: in vivo, barnyard grass (Echinochloa crus-galli); conditions: 320 g/ha
How it was run: as §4

CCCC(=O)Oc1c(C)nn(C)c(=O)c1-c1c(-c2ccc3c(c2)OCCO3)sc2cc(C)ccc12 [3-060]
M: velvetleaf, herbicidal effect grade [1]: 0 (Herbicidal rate of 5% or less (almost no effect))
H: barnyard grass, herbicidal effect grade [2]: 0 (Herbicidal rate of 5% or less (almost no effect))
N: redroot pigweed, herbicidal effect grade [3]: 0 (Herbicidal rate of 5% or less (almost no effect))
R: persian speedwell, herbicidal effect grade [4]: 3 (Herbicidal rate of 40% or more and less than 70%)
L: windgrass, herbicidal effect grade [5]: 3 (Herbicidal rate of 40% or more and less than 70%)
F: southern crabgrass, herbicidal effect grade [6]: 0 (Herbicidal rate of 5% or less (almost no effect))
P: chickweed, herbicidal effect grade [7]: 0 (Herbicidal rate of 5% or less (almost no effect))
J: blackgrass, herbicidal effect grade [8]: 3 (Herbicidal rate of 40% or more and less than 70%)
K: Italian ryegrass, herbicidal effect grade [9]: 0 (Herbicidal rate of 5% or less (almost no effect))
N: redroot pigweed, herbicidal effect grade [10]: 0 (Herbicidal rate of 5% or less (almost no effect))
H: barnyard grass, herbicidal effect grade [11]: 0 (Herbicidal rate of 5% or less (almost no effect))
O: lambsquarters, herbicidal effect grade [12]: 0 (Herbicidal rate of 5% or less (almost no effect))
P: chickweed, herbicidal effect grade [13]: 5 (Herbicidal rate of 90% or more (almost completely withered))
L: windgrass, herbicidal effect grade [14]: 0 (Herbicidal rate of 5% or less (almost no effect))
G: green foxtail, herbicidal effect grade [15]: 0 (Herbicidal rate of 5% or less (almost no effect))
K: Italian ryegrass, herbicidal effect grade [16]: 0 (Herbicidal rate of 5% or less (almost no effect))
I: wild oat, herbicidal effect grade [17]: 0 (Herbicidal rate of 5% or less (almost no effect))
G: green foxtail, herbicidal effect grade [18]: 0 (Herbicidal rate of 5% or less (almost no effect))
Herbicidal effect, C: oval-leafed pondweed [19]: 0 (Herbicidal rate of 5% or less (almost no effect))
herbicidal effect on Chinese sprangletop (D) [20]: 4 (Herbicidal rate of 70% or more and less than 90%)
R: persian speedwell, herbicidal effect grade [21]: 5 (Herbicidal rate of 90% or more (almost completely withered))
J: blackgrass, herbicidal effect grade [22]: 0 (Herbicidal rate of 5% or less (almost no effect))
Q: false cleavers, herbicidal effect grade [23]: 0 (Herbicidal rate of 5% or less (almost no effect))
I: wild oat, herbicidal effect grade [24]: 0 (Herbicidal rate of 5% or less (almost no effect))
Q: false cleavers, herbicidal effect grade [25]: 0 (Herbicidal rate of 5% or less (almost no effect))
herbicidal effect on rice flat sedge (E) [26]: 3 (Herbicidal rate of 40% or more and less than 70%)
M: velvetleaf, herbicidal effect grade [27]: 0 (Herbicidal rate of 5% or less (almost no effect))
Herbicidal effect, B: Japanese bulrush [28]: 2 (Herbicidal rate of 20% or more and less than 40%)
Herbicidal effect, A: late watergrass [29]: 1 (Herbicidal rate of 5% or more and less than 20%)
F: southern crabgrass, herbicidal effect grade [30]: 0 (Herbicidal rate of 5% or less (almost no effect))
herbicidal effect on barnyard grass (H) [31]: 3 (Herbicidal rate of 40% or more and less than 70%)
